Legend:
[1] = biological target: T1, LexA-TetR fusion protein (Escherichia coli, UniProt P04483); assay: Y3H LacZ assay for tetracyclines; assay type: cell-based, Saccharomyces cerevisiae
T1 construct: expressed in transfected cells; host or cells: Saccharomyces cerevisiae: FY250-derived PBA-8 (LacZ), LW2635-derived PBA-14 (URA3 growth), FY250-derived HL-2-4-1 (mCherry); the other entry of the earlier key: lexA (P0A7C2, LexA repressor)
Protocol: Protocol for Y3H LacZ Assay. […] Pelleting and resuspension were repeated once more. […] The assay plate was placed in the shaker overnight. OD measurements were then taken after 24 h, and the cells ere pelleted and resuspended in 100 μL of Z-buffer (60 mM Na2HPO4, 40 mM NaH2PO4, 10 mM KCl, 2 mM MgSO4, pH adjusted to 7, 2.7 mL/L of β-mercaptoethanol added fresh the day of the assay). The cells were pelleted again, resuspended in 100 μL of Y-PER buffer (Fisher Scientific, no. 78990), and lysed for 30 min at rt before the addition of o-nitrophenyl β-Dgalactopyranoside (ONPG) in Z-buffer (8.5 μL, 10 mg/mL). After 90 min, a Na2CO3 solution (1 M, 110 μL) was added to quench the reaction. After pelleting at 3000 rpm, 175 μL of the supernatant was transferred into flat clear-bottom 96-well plates (Corning no. 353072), and OD420 was measured. The limit of detection was calculated as the concentration of molecule at which the signal-to-noise ratio of the assay was >3:1.^32,33

[2] = test system: LexA-TetR fusion proteins of TetR classes A, B, C, D, E, G and H; assay: Y3H LacZ assay with varying TetR classes; assay type: cell-based, Saccharomyces cerevisiae; conditions: FIG. 2B
Protocol: Y3H Strain Construction. LexA-TetR Plasmids. Plasmids PBA-Gib5 and HL-249-1 through HL-249-6 encoding LexA-TetR protein fusions for the various TetR classes were cloned by Gibson Assembly of the appropriate TetR sequence with pMW103 digested with restriction enzymes BamHI-HF and EcoRI-HF (Table 3). All TetR sequences with the exception of B) were obtained as IDT gBlocks. TetR(B) sequence was amplified from pET21d-TetR, courtesy of A. Davidson.^25,26
LacZ Assay Strain Construction. V506 was grown overnight in UT-media.^27 The culture was then diluted […] with UT- and plated on UT-plates. Single colonies were streaked on HTU- and UT-plates and a streak growing on UT- but not on HTU-, indicating the loss of the pMW3-(GSG)2rGR2 plasmid, was glycerol stocked as PBA5. This strain was further used for the transformation of the LexA-TetR plasmids to generate LacZ assay strains PBA8 and HL-260-1 through HL-260-7.
Protocol for Y3H LacZ Assay. […] Pelleting and resuspension were repeated once more. […] The assay plate was placed in the shaker overnight. […] After pelleting at 3000 rpm, 175 μL of the supernatant was transferred into flat clear-bottom 96-well plates (Corning no. 353072), and OD420 was measured. The limit of detection was calculated as the concentration of molecule at which the signal-to-noise ratio of the assay was >3:1.^32,33

[3] = biological target: T2, TetR (Escherichia coli, UniProt P04483); conditions: literature (ref. 37); cited from earlier work
[4] = biological target: T2, TetR; conditions: literature (ref. 37); cited from earlier work; remark: listed apart in the source
[5] = relative to tetracycline, literature (ref. 55); cited from earlier work
[6] = biological target: LexA-TetR(B) fusion protein (Escherichia coli, UniProt P04483); conditions: purified TAN-1612 0.5 μM in assay well, 10 μM CID, FIG. 4B
Protocol: Protocol for Fluorescent Protein Y3H Assay. Fresh patches of Y3H strain HL-2-4-1 were inoculated into HTU-media (1 mL) in 24-well plates (flat, clear bottom, Corning no. 3526) and placed in the shaker. After 24 h, the cells were pelleted by centrifugation at 3250 rpm and resuspended in H2O (1 mL). Pelleting and resuspension were repeated once more. OD600 was measured by diluting 10× into H2O, and the cells were diluted accordingly into H2O for OD600=1 to be used as a 10× solution. A total of 20 μL of cells of OD600=1 were added to the assay plate as the last component in the assay plate (flat, clear bottom, black 96-well plate, Corning no. 3603). […] Starting conditions in the assay plate were OD600=0.1, 2% galactose, 2% raffinose, 0% glucose, 1×HTU-, 10 μM CID, 2% DMSO. The assay plate was placed in the 30° C. shaker overnight before measuring OD600 and 620 nm fluorescence (λex=588 nm).^31
Overnight cultures were used to inoculate 100 mL of YPD in 500 mL conical flasks with a starting OD600 of 0.08. After 68 h, 1 mL of culture was pelleted in 1.5 mL Eppendorf tubes at 14 000 rpm, sterile filtered, and diluted 20× into H2O to be used as a 10× stock solution.
The plate was covered with two layers of SealMate film (Excel Scientific, SM-KIT-BS) and placed in a shaker overnight. […]

CN(C)c1cc(NC(=O)CNC(=O)CC[C@H](NC(=O)c2ccc(N(C)Cc3ccc4nc(N)nc(N)c4c3)cc2)C(=O)O)c(O)c2c1C[C@H]1C[C@H]3C(N(C)C)C(O)=C(C(N)=O)C(=O)[C@@]3(O)C(O)=C1C2=O (some centres unmarked) [Min-Mtx CID]
reporter gene output dependence on CID ([1]; varying concentrations of Min-Mtx CID, FIG. 2A): dependent upon the presence of the CID | response to the CID, best TetR classes ([2]; TetR(B) and TetR(G)): showed the best response to the CID | responsiveness of the Y3H system to the CID ([2]; all TetR classes tested as protein receptors): responsive to the CID with all known TetR classes except for the TetR(C) variant used

Cc1c2c(c(O)c3c(O)cccc13)C(=O)C1(O)C(=O)C(C(N)=O)=C(O)CC1C2 (centres unmarked) [4-de(dimethylamino)-anhydrotetracycline]
binding to TetR [3]: possible to detect binding | induction in TetR-TetO-based assay [4]: no induction was detected

9-NH2-minocycline
concentrations differentiated by the Y3H system (range) ([1]; LacZ reporter, competition with Min-Mtx CID, FIG. 2C): 0.2 to 20 µM | acid stability [5]: high acid stability relative to tetracycline

COc1cc(O)c2c(O)c3c(cc2c1)CC1(O)CC(=O)C(C(C)=O)=C(O)C1(O)C3=O (centres unmarked) [TAN-1612]
Y3H signal (mCherry) of purified compound spiked into nonproducer supernatants [6]: resembles the signal obtained with producer supernatant

Source: US20220112470A1, “SYSTEMS AND METHODS FOR METABOLIC ENGINEERING” (THE TRUSTEES OF COLUMBIA UNIVERSITY IN THE CITY OF NEW YORK, priority 2019, published 2022)
